# Measured values: ChEMBL document CHEMBL3046498, “Weed control efficacy and winter wheat safety of a novel herbicide HW02” (Crop Prot, 2013)
# Activity calls are given as the source filed them. No cut-off for these calls is given here.
# Assays:
# Triticum aestivum [1] = test: Toxicity against Winter Triticum aestivum (wheat) cultivar Dongmai 12 assessed as plant height at 450 g ai/h applied at late tillering stage of crop in spring (reference value: 72.7 cm); assay type: organism-based; conditions: in vivo, other
# Triticum aestivum [2] = test: Toxicity against Winter Triticum aestivum (wheat) cultivar Dongmai 12 assessed as plant height at 225 g ai/h applied at booting stage of crop (reference value: 72.7 cm); assay type: organism-based; conditions: in vivo, other
# Triticum aestivum [3] = test: Toxicity against Winter Triticum aestivum (wheat) cultivar Dongmai 12 assessed as 1000-grain weight at 225 g ai/h applied at late tillering stage of crop in spring (reference value: 42.6 g); assay type: organism-based; conditions: in vivo, other
# Triticum aestivum [4] = test: Toxicity against Winter Triticum aestivum (wheat) cultivar Dongmai 12 assessed as spike numbers at 450 g ai/h applied at 3-leaf stage of crop (reference value: 482.4/m'2); assay type: organism-based; conditions: in vivo, other
# Triticum aestivum [5] = test: Toxicity against Winter Triticum aestivum (wheat) cultivar Dongmai 12 assessed as spike numbers at 225 g ai/h applied at 2-tillering stage of crop in winter (reference value: 482.4/m'2); assay type: organism-based; conditions: in vivo, other
# Triticum aestivum [6] = test: Toxicity against Winter Triticum aestivum (wheat) cultivar Dongmai 12 assessed as plant height at 225 g ai/h applied at 3-leaf stage of crop (reference value: 72.7 cm); assay type: organism-based; conditions: in vivo, other
# Triticum aestivum [7] = test: Toxicity against Winter Triticum aestivum (wheat) cultivar Dongmai 12 assessed as 1000-grain weight at 450 g ai/h applied at late tillering stage of crop in spring (reference value: 42.6 g); assay type: organism-based; conditions: in vivo, other
# Triticum aestivum [8] = test: Toxicity against Winter Triticum aestivum (wheat) cultivar Dongmai 12 assessed as 1000-grain weight at 450 g ai/h applied at 3-leaf stage of crop (reference value: 42.6 gms); assay type: organism-based; conditions: in vivo, other
# Triticum aestivum [9] = test: Toxicity against Winter Triticum aestivum (wheat) cultivar Dongmai 12 assessed as 1000-grain weight at 900 g ai/h applied at booting stage of crop (reference value: 42.6 g); assay type: organism-based; conditions: in vivo, other
# Triticum aestivum [10] = test: Toxicity against Winter Triticum aestivum (wheat) cultivar Dongmai 12 assessed as plant height at 450 g ai/h applied at 3-leaf stage of crop (reference value: 72.7 cm); assay type: organism-based; conditions: in vivo, other
# Triticum aestivum [11] = test: Toxicity against Winter Triticum aestivum (wheat) cultivar Dongmai 12 assessed as plant height at 450 g ai/h applied at booting stage of crop (reference value: 72.7 cm); assay type: organism-based; conditions: in vivo, other
# Capsella bursa-pastoris [12] = test: Herbicidal activity against Capsella bursa-pastoris in wheat cultivar Dongmai 12 field assessed as decrease in biomass applied during late tillering stage of winter wheatat 525 g ai/h measured after 45 days under field trials; assay type: functional, organism-based
# Descurainia sophia [13] = test: Herbicidal activity against Descurainia sophia assessed as decrease in biomass treated at 4-5 leaf stage measured after 14 days under greenhouse trials; assay type: functional
# Triticum aestivum [14] = test: Toxicity against Winter Triticum aestivum (wheat) cultivar Dongmai 12 assessed as 1000-grain weight at 900 g ai/h applied at late tillering stage of crop in spring (reference value: 42.6 g); assay type: organism-based; conditions: in vivo, other
# Triticum aestivum [15] = test: Toxicity against Winter Triticum aestivum (wheat) cultivar Dongmai 12 assessed as grain yield at 525 g ai/h; assay type: organism-based; conditions: in vivo
# Triticum aestivum [16] = test: Toxicity against Winter Triticum aestivum (wheat) cultivar Dongmai 12 assessed as spike numbers at 900 g ai/h applied at 2-tillering stage of crop in winter (reference value: 482.4/m'2); assay type: organism-based; conditions: in vivo, other
# Triticum aestivum [17] = test: Toxicity against Winter Triticum aestivum (wheat) cultivar Dongmai 12 assessed as abnormal ear formation at 525 g ai/h; assay type: organism-based; conditions: in vivo
# Myosoton aquaticum = test: Herbicidal activity against Myosoton aquaticum assessed as decrease in biomass treated at four to five-leaf stage measured after 14 days under greenhouse trials; assay type: functional
# Triticum aestivum [18] = test: Toxicity against Winter Triticum aestivum (wheat) cultivar lifeng 703 assessed as abnormal ear formation at 525 g ai/h; assay type: organism-based; conditions: in vivo
# Triticum aestivum [19] = test: Toxicity against Winter Triticum aestivum (wheat) cultivar Dongmai 12 assessed as spike numbers at 450 g ai/h applied at late tillering stage of crop in spring (reference value: 482.4/m'2); assay type: organism-based; conditions: in vivo, other
# Triticum aestivum [20] = test: Toxicity against Winter Triticum aestivum (wheat) cultivar Dongmai 12 assessed as 1000-grain weight at 450 g ai/h applied at 2-tillering stage of crop in winter (reference value: 42.6 g); assay type: organism-based; conditions: in vivo, other
# Descurainia sophia [21] = test: Herbicidal activity against Descurainia sophia in Wheat cultivar lifeng 703 field assessed as decrease in plant number applied during late tillering stage of winter wheat at 525 g ai/h measured after 45 days under field trials; assay type: functional, organism-based
# Triticum aestivum [22] = test: Toxicity against Winter Triticum aestivum (wheat) cultivar Dongmai 12 assessed as plant height at 900 g ai/h applied at late tillering stage of crop in spring (reference value: 72.7 cm); assay type: organism-based; conditions: in vivo, other
# Triticum aestivum [23] = test: Toxicity against Winter Triticum aestivum (wheat) cultivar Dongmai 12 assessed as 1000-grain weight at 900 g ai/h applied at 2-tillering stage of crop in winter (reference value: 42.6 g); assay type: organism-based; conditions: in vivo, other
# Triticum aestivum [24] = test: Toxicity against Winter Triticum aestivum (wheat) cultivar Dongmai 12 assessed as spike numbers at 225 g ai/h applied at 3-leaf stage of crop (reference value: 482.4/m'2); assay type: organism-based; conditions: in vivo, other
# Triticum aestivum [25] = test: Toxicity against Winter Triticum aestivum (wheat) cultivar Dongmai 12 assessed as 1000-grain weight at 900 g ai/h applied at 3-leaf stage of crop (reference value: 42.6 g); assay type: organism-based; conditions: in vivo, other
# Triticum aestivum [26] = test: Toxicity against Winter Triticum aestivum (wheat) cultivar Dongmai 12 assessed as 1000-grain weight at 225 g ai/h applied at 2-tillering stage of crop in winter (reference value: 42.6 g); assay type: organism-based; conditions: in vivo, other
# Triticum aestivum [27] = test: Toxicity against Winter Triticum aestivum (wheat) cultivar Dongmai 12 assessed as spike numbers at 900 g ai/h applied at booting stage of crop (reference value: 482.4/m'2); assay type: organism-based; conditions: in vivo, other
# Triticum aestivum [28] = test: Toxicity against Winter Triticum aestivum (wheat) cultivar Dongmai 12 assessed as 1000-grain weight at 225 g ai/h applied at 3-leaf stage of crop (reference value: 42.6 gms); assay type: organism-based; conditions: in vivo, other
# Triticum aestivum [29] = test: Toxicity against Winter Triticum aestivum (wheat) cultivar Dongmai 12 assessed as plant height at 900 g ai/h applied at 2-tillering stage of crop in winter (reference value: 72.7 cm); assay type: organism-based; conditions: in vivo, other
# Amaranthus retroflexus = test: Herbicidal activity against Amaranthus retroflexus assessed as decrease in biomass treated at 4-5 leaf stage measured after 14 days under greenhouse trials; assay type: functional
# Capsella bursa-pastoris [30] = test: Herbicidal activity against Capsella bursa-pastoris in wheat cultivar lifeng 703 field assessed as decrease in biomass applied during late tillering stage of winter wheatat 525 g ai/h measured after 45 days under field trials; assay type: functional, organism-based
# Capsella bursa-pastoris [31] = test: Herbicidal activity against Capsella bursa-pastoris assessed as decrease in biomass treated at 4-5 leaf stage measured after 14 days under greenhouse trials; assay type: functional
# Triticum aestivum [32] = test: Toxicity against Winter Triticum aestivum (wheat) cultivar Dongmai 12 assessed as spike numbers at 900 g ai/h applied at late tillering stage of crop in spring (reference value: 482.4/m'2); assay type: organism-based; conditions: in vivo, other
# Triticum aestivum [33] = test: Toxicity against Winter Triticum aestivum (wheat) cultivar Dongmai 12 assessed as spike numbers at 450 g ai/h applied at booting stage of crop (reference value: 482.4/m'2); assay type: organism-based; conditions: in vivo, other
# Triticum aestivum [34] = test: Toxicity against Winter Triticum aestivum (wheat) cultivar Dongmai 12 assessed as spike numbers at 225 g ai/h applied at booting stage of crop (reference value: 482.4/m'2); assay type: organism-based; conditions: in vivo, other
# Triticum aestivum [35] = test: Toxicity against Winter Triticum aestivum (wheat) cultivar lifeng 703 assessed as grain yield at 525 g ai/h; assay type: organism-based; conditions: in vivo
# Triticum aestivum [36] = test: Toxicity against Winter Triticum aestivum (wheat) cultivar Dongmai 12 assessed as 1000-grain weight at 450 g ai/h applied at booting stage of crop (reference value: 42.6 g); assay type: organism-based; conditions: in vivo, other
# Triticum aestivum [37] = test: Toxicity against Winter Triticum aestivum (wheat) cultivar Dongmai 12 assessed as plant height at 225 g ai/h applied at 2-tillering stage of crop in winter (reference value: 72.7 cm); assay type: organism-based; conditions: in vivo, other
# Triticum aestivum [38] = test: Toxicity against Winter Triticum aestivum (wheat) cultivar Dongmai 12 assessed as 1000-grain weight at 225 g ai/h applied at booting stage of crop (reference value: 42.6 g); assay type: organism-based; conditions: in vivo, other
# Triticum aestivum [39] = test: Toxicity against Winter Triticum aestivum (wheat) cultivar Dongmai 12 assessed as spike numbers at 900 g ai/h applied at 3-leaf stage of crop (reference value: 482.4/m'2); assay type: organism-based; conditions: in vivo, other
# Triticum aestivum [40] = test: Toxicity against Winter Triticum aestivum (wheat) cultivar Dongmai 12 assessed as spike numbers at 450 g ai/h applied at 2-tillering stage of crop in winter (reference value: 482.4/m'2); assay type: organism-based; conditions: in vivo, other
# Triticum aestivum [41] = test: Toxicity against Winter Triticum aestivum (wheat) cultivar Dongmai 12 assessed as plant height at 225 g ai/h applied at late tillering stage of crop in spring (reference value: 72.7 cm); assay type: organism-based; conditions: in vivo, other
# Descurainia sophia [42] = test: Herbicidal activity against Descurainia sophia in Wheat cultivar Dongmai 12 field assessed as decrease in biomass applied during late tillering stage of winter wheat at 525 g ai/h measured after 45 days under field trials; assay type: functional, organism-based
# Descurainia sophia [43] = test: Herbicidal activity against Descurainia sophia in Wheat cultivar Dongmai 12 field assessed as decrease in plant number applied during late tillering stage of winter wheat at 525 g ai/h measured after 45 days under field trials; assay type: functional, organism-based
# Capsella bursa-pastoris [44] = test: Herbicidal activity against Capsella bursa-pastoris in wheat cultivar lifeng 703 field assessed as decrease in plant number applied during late tillering stage of winter wheatat 525 g ai/h measured after 45 days under field trials; assay type: functional, organism-based
# Triticum aestivum [45] = test: Toxicity against Winter Triticum aestivum (wheat) cultivar Dongmai 12 assessed as plant height at 900 g ai/h applied at booting stage of crop (reference value: 72.7 cm); assay type: organism-based; conditions: in vivo, other
# Triticum aestivum [46] = test: Toxicity against Winter Triticum aestivum (wheat) cultivar Dongmai 12 assessed as plant height at 450 g ai/h applied at 2-tillering stage of crop in winter (reference value: 72.7 cm); assay type: organism-based; conditions: in vivo, other
# Descurainia sophia [47] = test: Herbicidal activity against Descurainia sophia in Wheat cultivar lifeng 703 field assessed as decrease in biomass applied during late tillering stage of winter wheat at 525 g ai/h measured after 45 days under field trials; assay type: functional, organism-based
# Capsella bursa-pastoris [48] = test: Herbicidal activity against Capsella bursa-pastoris in wheat cultivar Dongmai 12 field assessed as decrease in plant number applied during late tillering stage of winter wheatat 525 g ai/h measured after 45 days under field trials; assay type: functional, organism-based
# Triticum aestivum [49] = test: Toxicity against Winter Triticum aestivum (wheat) cultivar Dongmai 12 assessed as plant height at 900 g ai/h applied at 3-leaf stage of crop (reference value: 72.7 cm); assay type: organism-based; conditions: in vivo, other
# Triticum aestivum [50] = test: Toxicity against Winter Triticum aestivum (wheat) cultivar Dongmai 12 assessed as spike numbers at 225 g ai/h applied at late tillering stage of crop in spring (reference value: 482.4/m'2); assay type: organism-based; conditions: in vivo, other
smiles,measurement,setting,value
"O=C(O)COc1ccc(Cl)cc1Cl [2,4-DICHLOROPHENOXYACETIC ACID]",Activity,Triticum aestivum [1],72 cm
same,Activity,Triticum aestivum [2],72 cm
same,Activity,Triticum aestivum [3],42.4 g
same,Activity,Triticum aestivum [4],366 /m2
same,Activity,Triticum aestivum [5],478.5 /m2
same,Activity,Triticum aestivum [6],70.3 cm
same,Activity,Triticum aestivum [7],42.2 g
same,Activity,Triticum aestivum [8],38.8 g
same,Activity,Triticum aestivum [9],41.7 g
same,Activity,Triticum aestivum [10],66 cm
same,Activity,Triticum aestivum [11],71.5 cm
same,inhibition,Capsella bursa-pastoris [12],Active
same,ED50,Descurainia sophia [13],23.9 gAi/ha
same,Activity,Triticum aestivum [14],42.2 g
same,Activity,Triticum aestivum [15],5.6 tons/ha
same,Activity,Triticum aestivum [16],450 /m2
same,Activity,Triticum aestivum [17],Non-toxic
same,ED50,Myosoton aquaticum,60.2 gAi/ha
same,Activity,Triticum aestivum [18],Toxic
same,Activity,Triticum aestivum [19],480 /m2
same,Activity,Triticum aestivum [20],42.6 g
same,inhibition,Descurainia sophia [21],Active
same,Activity,Triticum aestivum [22],72.3 cm
same,Activity,Triticum aestivum [23],42.2 g
same,Activity,Triticum aestivum [24],406.5 /m2
same,Activity,Triticum aestivum [25],37.5 g
same,Activity,Triticum aestivum [26],42.6 g
same,Activity,Triticum aestivum [27],474 /m2
same,Activity,Triticum aestivum [28],40.9 g
same,Activity,Triticum aestivum [29],71.5 cm
same,ED50,Amaranthus retroflexus,74.1 gAi/ha
same,inhibition,Capsella bursa-pastoris [30],Active
same,ED50,Capsella bursa-pastoris [31],75.4 gAi/ha
same,Activity,Triticum aestivum [32],480 /m2
same,Activity,Triticum aestivum [33],474 /m2
same,Activity,Triticum aestivum [34],484.5 /m2
same,Activity,Triticum aestivum [35],8.2 tons/ha
same,Activity,Triticum aestivum [36],42.5 g
same,Activity,Triticum aestivum [37],72 cm
same,Activity,Triticum aestivum [38],42.5 g
same,Activity,Triticum aestivum [39],361.5 /m2
same,Activity,Triticum aestivum [40],453 /m2
same,Activity,Triticum aestivum [41],73.2 cm
same,inhibition,Descurainia sophia [42],Active
same,inhibition,Descurainia sophia [43],Active
same,inhibition,Capsella bursa-pastoris [44],Active
same,Activity,Triticum aestivum [45],70.5 cm
same,Activity,Triticum aestivum [46],71.9 cm
same,inhibition,Descurainia sophia [47],Active
same,inhibition,Capsella bursa-pastoris [48],Active
same,Activity,Triticum aestivum [49],61.6 cm
same,Activity,Triticum aestivum [50],484.5 /m2
